Laboratory results as given in the NIST ThermoML archive (doi:10.1016/j.jct.2004.11.015).
Numbers after ± are expanded uncertainties.

Tests used:
[1] = Liquid; for mass density: 101.33 kPa
[2] = refractive index (Na D-line) (dimensionless); conditions: 101.33 kPa, Liquid, Abbe refractometer

| mass density ([1]; 298.15 K) [kg/m3] | refractive index ([2]; 298.15 K) | SMILES | further results |
| --- | --- | --- | --- |
| 862.5 ± 1.1 | 1.4932 ± 0.0007 | CCc1ccccc1 [ethylbenzene] | vapor or sublimation pressure ([1]; 407.05 K): 94.7 ± 9.6 kPa |
| 815 ± 1 | 1.4085 ± 0.0007 | CCCCCO [pentan-1-ol] | vapor or sublimation pressure ([1]; 400.15 K): 94.7 ± 9.6 kPa |
| 939.8 ± 1.5 | 1.4984 ± 0.0007 | Cc1ccccn1 [2-methylpyridine] | vapor or sublimation pressure ([1]; 398.05 K): 94.7 ± 9.6 kPa |

Further lines, the molecule ahead of its results:

| SMILES | mass density ([1]; 298.15 K) [kg/m3] | refractive index ([2]; 298.15 K) | further results |
| --- | --- | --- | --- |
| CC(=O)N(C)C [N,N-dimethylethanamide] | 936.3 ± 1.5 | 1.4356 ± 0.0007 | vapor or sublimation pressure ([1]; 415.35 K): 94.7 ± 9.6 kPa |
| C=CC#N [acrylonitrile] | 800.4 ± 1.3 | 1.3888 ± 0.0007 | vapor or sublimation pressure ([1]; 348.85 K): 94.7 ± 9.6 kPa |
| ClCC1CO1 (centres undefined) [1-chloro-2,3-epoxypropane] | 1174.6 ± 2 | 1.4358 ± 0.0007 | vapor or sublimation pressure ([1]; 389.15 K): 94.7 ± 9.6 kPa |
| CC(=O)c1ccccc1 [acetophenone] |  |  | mass density ([1]; 293.15 K): 1028.1 ± 1.3 kg/m3; vapor or sublimation pressure ([1]; 472.25 K): 94.7 ± 9.6 kPa; refractive index ([2]; 293.15 K): 1.5342 ± 0.0007 |
| CC(=O)CC(C)C [4-methylpentan-2-one] | 796.3 ± 1.2 | 1.3936 ± 0.0007 | vapor or sublimation pressure ([1]; 387.15 K): 94.7 ± 9.6 kPa |
